Data from patent US12303570B2, “Compositions and methods for assessing eye vasculature” (MediBeacon Inc., priority 2015, dated 2025).
Where a name gives a salt, the structure may show the parent alone.

How the values were obtained:
[1] = UV/vis absorption and fluorescence of pyrazine dyes; type: physicochemical
[2] = cited from earlier work
serum protein = details: immediately upon intra-venous injection; cited from earlier work
[3] = 100 μM (Example 4 prints 100 μm)

Structure (SMILES)	Fluorescence λem ([1]; 100 nM) [nm]	Fluorescence λex ([1]; 100 nM) [nm]	UV/vis λabs ([1]; 100 μM in PBS) [nm]	further results
Nc1nc(C(=O)NCC(O)CO)c(N)nc1C(=O)NCC(O)CO (stereo not shown) [Example 5, 3,6-diamino-N^2,N^5-bis (2,3-dihydroxypropyl) pyrazine-2,5-dicarboxamide]	–	–	–	UV/vis λabs ([1]; 100 μM in H2O): 432 nm; Fluorescence λem ([1]; concentration not given): 558 nm; Fluorescence λex ([1]; concentration not given): 432 nm
O=C1OC2(c3ccc(O)cc3Oc3cc(O)ccc32)c2ccccc21 [Sodium fluorescein]	–	–	–	lipid solubility [2]: relatively high; converted to non-fluorescent serum protein bound molecule (serum protein): 93%
COCCOCCOCCOCCOCCOCCOCCOCCC(=O)NCCNC(=O)c1nc(N)c(C(=O)NCCNC(=O)CCOCCOCCOCCOCCOCCOCCOCCOC)nc1N [Example 10, 3,6-diamino-N^2,N^5-bis(26-oxo-2,5,8,11,14,17,20,23-octaoxa-27-azanonacosan-29-yl)pyrazine-2,5-dicarboxamide]	560	438	438	–
Nc1nc(C(=O)N[C@@H](CO)C(=O)O)c(N)nc1C(=O)N[C@@H](CO)C(=O)O [Example 3, 3,6-diamino-N^2,N^5-bis(L-serine)-pyrazine-2,5-dicarboxamide]	–	–	–	light absorption maximum [1]: 445 nm; light emission maximum [1]: 560 nm
COCCOCCOCCOCCC(=O)NCCNC(=O)c1nc(N)c(C(=O)NCCNC(=O)CCOCCOCCOCCOC)nc1N [Example 9, 3,6-diamino-N^2,N^5-bis(14-oxo-2,5,8,11-tetraoxa-15-azaheptadecan-17-yl) pyrazine-2,5-dicarboxamide]	559	437	437	–
COCCN(CCOC)c1nc(C(=O)N[C@H](CC(=O)O)C(=O)O)c(N2CCOCC2)nc1C#N [Example 13, (R)-2-(6-(bis(2-methoxyethyl)amino)-5-cyano-3-morpholinopyrazine-2-carboxamido)succinic Acid]	–	–	438	Fluorescence λem ([1]; 100 μM): 570 nm; Fluorescence λex [1, 3]: 449 nm
NCCNC(=O)c1nc(N)c(C(=O)NCCN)nc1N [Example 7, 3,6-diamino-N^2,N^5-bis(2-aminoethyl)pyrazine-2,5-dicarboxamide Bis TFA Salt]	562	449	435	–
O=C1OC2(c3ccc(O)cc3Oc3cc(O[C@@H]4O[C@H](C(=O)O)[C@@H](O)[C@H](O)[C@H]4O)ccc32)c2ccccc21 (stereo partly shown) [fluorescein glucuronide]	–	–	–	fluorescent yield relative to fluorescein ([2]; metabolite versus parent): 5%
COCCN(CCOC)C(=O)c1nc(N(CCOC)CCOC)c(C(=O)N(CCOC)CCOC)nc1N(CCOC)CCOC [Example 6]	–	–	434	Fluorescence λem ([1]; concentration not given): 559 nm; Fluorescence λex ([1]; concentration not given): 449 nm
COCCOCCOCCOCCOCCOCCOCCOCCOCCOCCOCCOCCC(=O)NCCNC(=O)c1nc(N)c(C(=O)NCCNC(=O)CCOCCOCCOCCOCCOCCOCCOCCOCCOCCOCCOCCOC)nc1N [Example 11, 3,6-diamino-N^2,N^5-bis(38-oxo-2,5,8,11,14,17,20,23,26,29,32,35-dodecaoxa-39-azahentetracontan-41-y) pyrazine-2,5-dicarboxamide]	559	449	449	–
COCCN(CCOC)C(=O)c1nc(N)c(C(=O)N(CCOC)CCOC)nc1N [Example 4, 3,6-diamino-N^2,N^2,N^5,N^5-tetrakis(2-methoxyethyl) pyrazine-2,5-dicarboxamide]	–	–	394	Fluorescence λex [1, 3]: 394 nm; Fluorescence λem ([1]; 100 μm): 550 nm

More lines, main results first:

Fluorescence λem ([1]; 100 nM) [nm]	Fluorescence λex ([1]; 100 nM) [nm]	UV/vis λabs ([1]; 100 μM in PBS) [nm]	Structure (SMILES)	further results
–	–	434	Nc1nc(C(=O)N[C@H](CO)C(=O)O)c(N)nc1C(=O)N[C@H](CO)C(=O)O [Example 2, 3,6-diamino-N^2,N^5-bis(D-serine)-pyrazine-2,5-dicarboxamide]	light absorption maximum [1]: 445 nm; light emission maximum [1]: 560 nm; Fluorescence λem ([1]; concentration not given): 559 nm; Fluorescence λex ([1]; concentration not given): 449 nm
558	449	433	Nc1nc(C(=O)N[C@H](CC(=O)O)C(=O)O)c(N)nc1C(=O)N[C@H](CC(=O)O)C(=O)O [Example 8, 3,6-diamino-N^2,N^5-bis(D-aspartate)-pyrazine-2,5-dicarboxamide]	–
